Values quoted from earlier work in publication PMC3433420 (PLoS ONE, 2012).
Read-outs that look alike come from different tables or passages of the source.

Molecular target: SH2 and PTB domains
Conditions: cited from earlier work
Excerpt: Supplement pone.0044471.s022.xlsx, sheet "Most recent PM interactions" | column: Kd || Supplement pone.0044471.s022.xlsx, sheet "All original PM interactions" | column: Kd

DADEpYLIPQQGFd [ErbB1 pY1016, N-terminally rhodamine-labeled 13-mer phosphopeptide]
Kd (protein ABL2, ref Jones et al. 2006 / Kaushansky et al. Mol Biosys 2008 / Kaushansky et al. Chem and Biol 2008): 280 nM | Kd (protein BLK, ref Jones et al. 2006 / Kaushansky et al. Mol Biosys 2008 / Kaushansky et al. Chem and Biol 2008): 660 nM | Kd (protein CRK, ref Jones et al. 2006 / Kaushansky et al. Mol Biosys 2008 / Kaushansky et al. Chem and Biol 2008): 470 nM | Kd (protein CRKL, ref Jones et al. 2006 / Kaushansky et al. Mol Biosys 2008 / Kaushansky et al. Chem and Biol 2008): 1000 nM | Kd (protein NCK1, ref Jones et al. 2006 / Kaushansky et al. Mol Biosys 2008 / Kaushansky et al. Chem and Biol 2008): 1000 nM | Kd (protein NCK2, ref Jones et al. 2006 / Kaushansky et al. Mol Biosys 2008 / Kaushansky et al. Chem and Biol 2008): 2000 nM | Kd (protein PIK3R1-C, ref Jones et al. 2006 / Kaushansky et al. Mol Biosys 2008 / Kaushansky et al. Chem and Biol 2008): 870 nM | Kd (protein PIK3R1-N, ref Jones et al. 2006 / Kaushansky et al. Mol Biosys 2008 / Kaushansky et al. Chem and Biol 2008): 650 nM | Kd (protein PIK3R1-NC, ref Jones et al. 2006 / Kaushansky et al. Mol Biosys 2008 / Kaushansky et al. Chem and Biol 2008): 300 nM | Kd (protein PIK3R2-N, ref Jones et al. 2006 / Kaushansky et al. Mol Biosys 2008 / Kaushansky et al. Chem and Biol 2008): 430 nM | Kd (protein PIK3R2-NC, ref Jones et al. 2006 / Kaushansky et al. Mol Biosys 2008 / Kaushansky et al. Chem and Biol 2008): 350 nM | Kd (protein PIK3R3-C, ref Jones et al. 2006 / Kaushansky et al. Mol Biosys 2008 / Kaushansky et al. Chem and Biol 2008): 190 nM | Kd (protein PIK3R3-N, ref Jones et al. 2006 / Kaushansky et al. Mol Biosys 2008 / Kaushansky et al. Chem and Biol 2008): 470 nM | Kd (protein PIK3R3-NC, ref Jones et al. 2006 / Kaushansky et al. Mol Biosys 2008 / Kaushansky et al. Chem and Biol 2008): 200 nM | Kd (protein PLCG1-C, ref Jones et al. 2006 / Kaushansky et al. Mol Biosys 2008 / Kaushansky et al. Chem and Biol 2008): 2000 nM | Kd (protein PLCG1-NC, ref Jones et al. 2006 / Kaushansky et al. Mol Biosys 2008 / Kaushansky et al. Chem and Biol 2008): 790 nM | Kd (protein PLCG2-NC, ref Jones et al. 2006 / Kaushansky et al. Mol Biosys 2008 / Kaushansky et al. Chem and Biol 2008): 2000 nM | Kd (protein PTPN11-N, ref Jones et al. 2006 / Kaushansky et al. Mol Biosys 2008 / Kaushansky et al. Chem and Biol 2008): 380 nM | Kd (protein RASA1-N, ref Jones et al. 2006 / Kaushansky et al. Mol Biosys 2008 / Kaushansky et al. Chem and Biol 2008): 770 nM | Kd (protein RASA1-NC, ref Jones et al. 2006 / Kaushansky et al. Mol Biosys 2008 / Kaushansky et al. Chem and Biol 2008): 1420 nM | Kd (protein SH2D3A, ref Jones et al. 2006 / Kaushansky et al. Mol Biosys 2008 / Kaushansky et al. Chem and Biol 2008): 2000 nM | Kd (protein SH2D3C, ref Jones et al. 2006 / Kaushansky et al. Mol Biosys 2008 / Kaushansky et al. Chem and Biol 2008): 2000 nM | Kd (protein SHB, ref Jones et al. 2006 / Kaushansky et al. Mol Biosys 2008 / Kaushansky et al. Chem and Biol 2008): 1990 nM | Kd (protein SHC1-PTB, ref Jones et al. 2006 / Kaushansky et al. Mol Biosys 2008 / Kaushansky et al. Chem and Biol 2008): 630 nM | Kd (protein SHC2-PTB, ref Jones et al. 2006 / Kaushansky et al. Mol Biosys 2008 / Kaushansky et al. Chem and Biol 2008): 660 nM | Kd (protein SHC3, ref Jones et al. 2006 / Kaushansky et al. Mol Biosys 2008 / Kaushansky et al. Chem and Biol 2008): 220 nM | Kd (protein SLA, ref Jones et al. 2006 / Kaushansky et al. Mol Biosys 2008 / Kaushansky et al. Chem and Biol 2008): 2000 nM | Kd (protein SYK-C, ref Jones et al. 2006 / Kaushansky et al. Mol Biosys 2008 / Kaushansky et al. Chem and Biol 2008): 930 nM | Kd (protein SYK-NC, ref Jones et al. 2006 / Kaushansky et al. Mol Biosys 2008 / Kaushansky et al. Chem and Biol 2008): 530 nM | Kd (protein TENC1, ref Jones et al. 2006 / Kaushansky et al. Mol Biosys 2008 / Kaushansky et al. Chem and Biol 2008): 2000 nM | Kd (protein TNS4, ref Jones et al. 2006 / Kaushansky et al. Mol Biosys 2008 / Kaushansky et al. Chem and Biol 2008): 920 nM | Kd (protein VAV1, ref Jones et al. 2006 / Kaushansky et al. Mol Biosys 2008 / Kaushansky et al. Chem and Biol 2008): 1050 nM | Kd (protein VAV2, ref Jones et al. 2006 / Kaushansky et al. Mol Biosys 2008 / Kaushansky et al. Chem and Biol 2008): 2000 nM | Kd (protein VAV3, ref Jones et al. 2006 / Kaushansky et al. Mol Biosys 2008 / Kaushansky et al. Chem and Biol 2008): 2000 nM

PSSGpYMPMNQGNd [ErbB3 pY1054, N-terminally rhodamine-labeled 13-mer phosphopeptide]
Kd (Protein ABL2, original PM interactions, ref Jones et al. 2006 / Kaushansky et al. Chem and Biol 2008): 170 nM | Kd (Protein ITK, original PM interactions, ref Jones et al. 2006 / Kaushansky et al. Chem and Biol 2008): 1670 nM | Kd (Protein PIK3R1-C, original PM interactions, ref Jones et al. 2006 / Kaushansky et al. Chem and Biol 2008): 1000 nM | Kd (Protein PIK3R1-N, original PM interactions, ref Jones et al. 2006 / Kaushansky et al. Chem and Biol 2008): 570 nM | Kd (Protein PIK3R1-NC, original PM interactions, ref Jones et al. 2006 / Kaushansky et al. Chem and Biol 2008): 110 nM | Kd (Protein PIK3R2-N, original PM interactions, ref Jones et al. 2006 / Kaushansky et al. Chem and Biol 2008): 1000 nM | Kd (Protein PIK3R2-NC, original PM interactions, ref Jones et al. 2006 / Kaushansky et al. Chem and Biol 2008): 90 nM | Kd (Protein PIK3R3-C, original PM interactions, ref Jones et al. 2006 / Kaushansky et al. Chem and Biol 2008): 110 nM | Kd (Protein PIK3R3-N, original PM interactions, ref Jones et al. 2006 / Kaushansky et al. Chem and Biol 2008): 1000 nM | Kd (Protein PIK3R3-NC, original PM interactions, ref Jones et al. 2006 / Kaushansky et al. Chem and Biol 2008): 50 nM | Kd (Protein SHB, original PM interactions, ref Jones et al. 2006 / Kaushansky et al. Chem and Biol 2008): 1370 nM | Kd (Protein SHC1-PTB, original PM interactions, ref Jones et al. 2006 / Kaushansky et al. Chem and Biol 2008): 2000 nM | Kd (Protein SHF, original PM interactions, ref Jones et al. 2006 / Kaushansky et al. Chem and Biol 2008): 1230 nM | Kd (Protein SYK-C, original PM interactions, ref Jones et al. 2006 / Kaushansky et al. Chem and Biol 2008): 1180 nM

QSLLSPSSGpYMPMNQGN [ErbB3 1054]
Kd (Protein ABL2, most recent PM interactions, ref Jones et al. 2006 / Kaushansky et al. Chem and Biol 2008): 330 nM | Kd (Protein ITK, most recent PM interactions, ref Jones et al. 2006 / Kaushansky et al. Chem and Biol 2008): 1670 nM | Kd (Protein PIK3R1-C, most recent PM interactions, ref Jones et al. 2006 / Kaushansky et al. Chem and Biol 2008): 1000 nM | Kd (Protein PIK3R1-N, most recent PM interactions, ref Jones et al. 2006 / Kaushansky et al. Chem and Biol 2008): 570 nM | Kd (Protein PIK3R1-NC, most recent PM interactions, ref Jones et al. 2006 / Kaushansky et al. Chem and Biol 2008): 920 nM | Kd (Protein PIK3R2-N, most recent PM interactions, ref Jones et al. 2006 / Kaushansky et al. Chem and Biol 2008): 890 nM | Kd (Protein PIK3R2-NC, most recent PM interactions, ref Jones et al. 2006 / Kaushansky et al. Chem and Biol 2008): 90 nM | Kd (Protein PIK3R3-C, most recent PM interactions, ref Jones et al. 2006 / Kaushansky et al. Chem and Biol 2008): 110 nM | Kd (Protein PIK3R3-N, most recent PM interactions, ref Jones et al. 2006 / Kaushansky et al. Chem and Biol 2008): 1320 nM | Kd (Protein PIK3R3-NC, most recent PM interactions, ref Jones et al. 2006 / Kaushansky et al. Chem and Biol 2008): 490 nM | Kd (Protein SHB, most recent PM interactions, ref Jones et al. 2006 / Kaushansky et al. Chem and Biol 2008): 1370 nM | Kd (Protein SHF, most recent PM interactions, ref Jones et al. 2006 / Kaushansky et al. Chem and Biol 2008): 1230 nM | Kd (Protein SYK-C, most recent PM interactions, ref Jones et al. 2006 / Kaushansky et al. Chem and Biol 2008): 1180 nM
